pKi: −log10 of the molar value. Read-outs that look alike come from different tables or passages of the source.

For test [1], the target named is human mu-opioid peptide (hMOP) receptor (Homo sapiens (Human), UniProt P35372). The experiment in a line: hMOP receptor binding assay (SPA). Conditions: for Ki: displacement of [3H]naloxone, hMOP receptor membranes, read-out: hMOP Ki [nM] or % inhibition at 1 μM. Here is the method:
Human Mu-Opioidpeptide (hMOP) Receptor Binding Assay
The hMOP receptor binding assay was performed as homogeneous SPA-assay (scintillation proximity assay) using the assay buffer 50 mM TRIS-HCl (pH 7.4) supplemented with 0.052 mg/ml bovine serum albumin (Sigma-Aldrich Co. St. Louis, Mo.). […] The assay was started by adding wheat germ agglutinin coated SPA beads (GE Healthcare UK Ltd. Buckinghamshire. UK) which had been preloaded with hMOP receptor membranes (PerkinElmer Life Sciences. Inc. Boston, Mass. USA).
On the technique in general: Loss of bound radioactivity is the signal in a displacement assay; it reports binding, not function.

The target of test [2] is human nociceptin/orphanin FQ peptide (hNOP) receptor (Homo sapiens (Human), UniProt P41146). The experiment in a line: hNOP receptor binding assay (SPA). Conditions: for Ki: displacement of [leucyl-3H]nociceptin, hNOP receptor membranes, read-out: hNOP Ki [nM] or % inhibition at 1 μM. On the procedure: Human Nociceptin/Orphanin FQ Peptide (hNOP) Receptor Binding Assay
The hNOP receptor binding assay was performed as homogeneous SPA-assay (scintillation proximity assay) using the assay buffer 50 mM TRIS-HCl, 10 mM MgCl2, 1 mM EDTA (pH 7.4). The final assay volume (250 μl/well) included 0.5 nM of [leucyl-^3H]nociceptin as ligand (PerkinElmer Life Sciences. Inc. Boston, Mass. USA) and either test compound in dilution series or 1 μM unlabelled nociceptin for determination of unspecific binding. The test compound was diluted with 25% DMSO in H2O to yield a final 0.5% DMSO concentration which also served as a respective vehicle control. The assay was started by adding wheat germ agglutinin coated SPA beads (GE Healthcare UK Ltd. Buckinghamshire. UK) which had been preloaded with hNOP receptor membranes (PerkinElmer Life Sciences. Inc. Boston, Mass. USA). After incubation for 60 minutes at RT and centrifugation for 20 minutes at 500 rpm the signal rate was measured by means of a 1450 Microbeta Trilux ß-counter (PerkinElmer Life Sciences/Wallac. Turku. Finland). Half-maximal inhibitory concentration (IC50) values reflecting 50% displacement of [^3H]nociceptin-specific receptor binding were calculated by nonlinear regression analysis and Ki values were calculated by using the Cheng-Prusoff equation. (Cheng and Prusoff. 1973).

Chain of human mu-opioid peptide (hMOP) receptor (P35372 whole entry): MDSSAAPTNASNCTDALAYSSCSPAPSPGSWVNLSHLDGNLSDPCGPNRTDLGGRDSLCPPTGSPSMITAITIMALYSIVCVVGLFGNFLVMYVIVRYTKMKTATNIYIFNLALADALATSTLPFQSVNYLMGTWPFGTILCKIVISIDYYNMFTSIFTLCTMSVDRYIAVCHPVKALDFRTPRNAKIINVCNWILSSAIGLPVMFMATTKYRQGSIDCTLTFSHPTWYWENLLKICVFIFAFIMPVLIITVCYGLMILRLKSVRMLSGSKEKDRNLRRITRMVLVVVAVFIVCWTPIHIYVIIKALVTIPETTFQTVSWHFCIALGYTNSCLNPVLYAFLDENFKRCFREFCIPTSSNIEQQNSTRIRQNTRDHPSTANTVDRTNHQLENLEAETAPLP

As usually defined, the Ki is a measure of affinity in units of concentration, obtained from inhibition or displacement. Regarding `CN(C)[C@]1(c2cccc(F)c2)C[C@@]2(CN(c3ccc(C(C)(C)O)cc3)C(=O)N2CC2CC2)C1` [SC-28, Cis-5-(cyclopropylmethyl)-2-(dimethylamino)-2-(3-fluorophenyl)-7-(4-(2-hydroxypropan-2-yl)phenyl)-5,7-diazaspiro[3.4]octan-6-one], the Ki in test [1] was 78 nM; in test [2], 46 nM.

Consider `CN(C)[C@]1(c2ccccc2)C[C@@]2(CN(c3ccc(OC(F)(F)F)cn3)C(=O)N2CC2(F)COC2)C1` [SC-29, Cis-2-(dimethylamino)-5-((3-fluorooxetan-3-yl)methyl)-2-phenyl-7-(5-(trifluoromethoxy)pyridin-2-yl)-5,7-diazaspiro[3.4]octan-6-one], for which the Ki came to 65 nM in test [1] and 16 nM in test [2].

As usually defined, the pKi is the negative decadic logarithm of the Ki, by convention in mol/L. Read a high pKi as a small Ki. `CN(C)[C@]1(c2cccc(F)c2)C[C@@]2(CN(CCS(C)(=O)=O)C(=O)N2CC2CC2)C1` [SC-31, cis-5-(cyclopropylmethyl)-2-(dimethylamino)-2-(3-fluorophenyl)-7-(2-(methylsulfonyl)ethyl)-5,7-diazaspiro[3.4]octan-6-one]: in test [1], the Ki was found to be 150 nM. This compound gave a negative logarithm of the Ki (pKi) in test [2] of 7.82.

As to `CN(C)[C@]1(c2ccccc2)C[C@@]2(CN(c3ccc(OC(F)(F)F)cn3)C(=O)N2CC2CC2)C1` [SC-32, Cis-5-(cyclopropylmethyl)-2-(dimethylamino)-2-phenyl-7-(5-(trifluoromethoxy)pyridin-2-yl)-5,7-diazaspiro[3.4]octan-6-one], the inhibitory constant (Ki) in test [1] was determined as 100 nM; in test [2] it was 36 nM.

As to `CN(C)[C@]1(c2cccc(F)c2)C[C@@]2(CN(CC3(F)COC3)C(=O)N2CC2CC2)C1` [SC-33, Cis-5-(cyclopropylmethyl)-2-(dimethylamino)-7-((3-fluorooxetan-3-yl)methyl)-2-(3-fluorophenyl)-5,7-diazaspiro[3.4]octan-6-one], the Ki in test [1] is 115 nM; in test [2] it was 23 nM.

As for `CN(C)[C@]1(c2ccccc2)C[C@@]2(CN(c3ccc(C4CC4)nc3)C(=O)N2CC2CC2)C1` [SC-34, Cis-5-(cyclopropylmethyl)-7-(6-cyclopropylpyridin-3-yl)-2-(dimethylamino)-2-phenyl-5,7-diazaspiro[3.4]octan-6-one], the figures for the Ki in test [1] and in test [2] were 50 nM and 17 nM, respectively.

As to `Cc1cc(C2CC2)ncc1N1C[C@]2(C[C@](c3ccccc3)(N(C)C)C2)N(CC2CC2)C1=O` [SC-35, Cis-7-(6-cyclopropyl-4-methylpyridin-3-yl)-5-(cyclopropylmethyl)-2-(dimethylamino)-2-phenyl-5,7-diazaspiro[3.4]octan-6-one], the Ki turned out to be 185 nM in test [1] and 19 nM in test [2].

In the case of `Cc1cc(C2CC2)ncc1N1C[C@]2(C[C@](c3ccccc3)(N(C)C)C2)N(CC2(F)COC2)C1=O` [SC-36, Cis-7-(6-cyclopropyl-4-methylpyridin-3-yl)-2-(dimethylamino)-5-((3-fluorooxetan-3-yl)methyl)-2-phenyl-5,7-diazaspiro[3.4]octan-6-one], the results for the inhibition constant (Ki) in test [1] and in test [2] were 330 nM and 10 nM, respectively.

In test [1], `COC(C)(C)CN1C[C@]2(C[C@](c3cccc(F)c3)(N(C)C)C2)N(CC2CC2)C1=O` [SC-37, Cis-5-(cyclopropylmethyl)-2-(dimethylamino)-2-(3-fluorophenyl)-7-(2-methoxy-2-methylpropyl)-5,7-diazaspiro[3.4]octan-6-one] showed a pKi of 7.36. Besides, the Ki in test [2] turned out to be 37 nM.

With `CN(C)[C@]1(c2ccccc2)C[C@@]2(CN(c3cncc(C(F)(F)F)c3)C(=O)N2CC2CC2)C1` [SC-39, Cis-5-(cyclopropylmethyl)-2-(dimethylamino)-2-phenyl-7-[5-(trifluoromethyl)pyridin-3-yl]-5,7-diazaspiro[3.4]octan-6-one], the Ki was 48 nM in test [1] and 5 nM in test [2].

In the case of `CN(C)[C@]1(c2ccccc2)C[C@@]2(CN(c3cnc(C#N)c(C(F)(F)F)c3)C(=O)N2CC2CC2)C1` [SC-40, Cis-5-[5-(cyclopropylmethyl)-2-(dimethylamino)-6-oxo-2-phenyl-5,7-diazaspiro[3.4]octan-7-yl]-3-(trifluoromethyl)pyridine-2-carbonitrile], the Ki in test [1] came to 102 nM; in test [2], 6 nM.

Regarding `CN(C)[C@]1(c2cccc(F)c2)C[C@@]2(CN(Cc3ccc(N4CCOCC4)cc3)C(=O)N2)C1` [SC-41, cis-2-(dimethylamino)-2-(3-fluorophenyl)-7-(4-morpholinobenzyl)-5,7-diazaspiro[3.4]octan-6-one], in test [1], the inhibitory constant (Ki) worked out at 465 nM. The pKi in test [2] is 7.68.

With `CN(C)[C@]1(c2cccc(F)c2)C[C@@]2(CN(CC3(O)CCC3)C(=O)N2CC2CC2)C1` [SC-42, Cis-5-(cyclopropylmethyl)-2-(dimethylamino)-2-(3-fluorophenyl)-7-[(1-hydroxycyclobutyl)methyl]-5,7-diazaspiro[3.4]octan-6-one], the inhibition constant (Ki) in test [1] came out at 125 nM; in test [2], 21 nM.

Consider `CN(C)[C@]1(c2ccccc2)C[C@@]2(CN(c3cnc(-c4ccncc4)nc3)C(=O)N2CC2CC2)C1` [SC-43, Cis-5-(cyclopropylmethyl)-2-(dimethylamino)-2-phenyl-7-(2-pyridin-4-ylpyrimidin-5-yl)-5,7-diazaspiro[3.4]octan-6-one], for which the values for the inhibition constant (Ki) in test [1] and in test [2] were 83 nM and 31 nM, respectively.

Consider `CN(C)[C@]1(c2cccc(F)c2)C[C@@]2(CN(CCC#N)C(=O)N2CC2CC2)C1` [SC-44, cis-3-(5-(cyclopropylmethyl)-2-(dimethylamino)-2-(3-fluorophenyl)-6-oxo-5,7-diazaspiro[3.4]octan-7-yl)propanenitrile], for which the pKi in test [1] is 6.96. Besides, the Ki in test [2] was determined as 15 nM.

For `CN(C)[C@]1(c2ccccc2)C[C@@]2(CN(CCC#N)C(=O)N2CC2CC2)C1` [SC-45, Cis-3-[5-(cyclopropylmethyl)-2-(dimethylamino)-6-oxo-2-phenyl-5,7-diazaspiro[3.4]octan-7-yl]propanenitrile], the inhibition constant Ki is 37 nM in test [1] and 25 nM in test [2].

Consider `CN(C)[C@]1(c2ccccc2)C[C@@]2(CN(CC3(O)CCC3)C(=O)N2CC2CC2)C1` [SC-46, Cis-5-(cyclopropylmethyl)-2-(dimethylamino)-7-[(1-hydroxycyclobutyl)methyl]-2-phenyl-5,7-diazaspiro[3.4]octan-6-one], for which the Ki in test [1] came to 48 nM; in test [2] it was 29 nM.

Take `CN(C)[C@]1(c2cccc(F)c2)C[C@@]2(CN(CCC3COC3)C(=O)N2CC2CC2)C1` [SC-47, Cis-5-(cyclopropylmethyl)-2-(dimethylamino)-2-(3-fluorophenyl)-7-[2-(oxetan-3-yl)ethyl]-5,7-diazaspiro[3.4]octan-6-one]: the inhibition constant Ki in test [1] came to 44 nM; in test [2], 9 nM.

Source of the values: US10738015B2, “1,3-diaza-spiro-[3.4]-octane derivatives” (priority 2017, dated 2020).
